From patent publication US11266626B2, “Reduction of ER-MAM-localized APP-C99 and methods of treating alzheimer's disease” (THE TRUSTEES OF COLUMBIA UNIVERSITY IN THE CITY OF NEW YORK, priority 2015, dated 2022)
“Also recorded” adds a separate entry of the source.

Tests used:
Assay type in all cases: cell-based, mouse
[1] = system: ACAT1; assay: ACAT activity assay (conversion of 3H-cholesterol to cholesteryl esters); details: PS-DKO cells; 100 nM BI, 12-16 h
Description: To measure cholesterol uptake in vivo, cultured cells were incubated in serum-free medium for 2 h to remove all exogenous lipids. After that, 2.5 μCi/ml of 3H-cholesterol was added to FBS-free DMEM containing 2% FAF-BSA, allowed to equilibrate for at least 30 min at 37° C., and the radiolabeled medium was added to the cells for the indicated periods of time. Cells were then washed and collected in DPBS, removing a small aliquot for protein quantification. Lipids were extracted in 3 volumes of chloroform:methanol (2:1 v/v). After vortexing and centrifugation at 8000×g for 5 min, the organic phase was blown to dryness under nitrogen. […] Iodine-stained bands corresponding to cholesterol and cholesteryl esters were scraped and counted.
(§1) To measure cholesterol esterification in vivo, cultured cells were incubated in serum-free medium for 2 h to remove all exogenous lipids. […] Cells were then washed and collected in DPBS, removing a small aliquot for protein quantification. […] Iodine-stained bands corresponding to cholesterol and cholesteryl esters were scraped and counted.
as §1

[2] = system: PS-DKO cells; assay: Seahorse analysis of mitochondrial respiration (OCR); details: BI 100 nM, myriocin 5 μM, TAPI-1 5 μM, 12-16 h, Aβ40:Aβ42 10:1, 6 ng/ml
Description: (§2) Respirometry of cultured cells was performed using the XF24e Extracellular Flux Analyzer (Seahorse Bioscience). Oxygen consumption was measured in basal conditions (Seahorse media with 25 mM glucose and 2 mM pyruvate) and after the sequential addition of 1 μM oligomycin (Complex V inhibitor), 0.75 μM FCCP (uncoupler) and 1 μM rotenone/1 μM antimycin A (Complex I and Complex III inhibitors respectively).
(§3) Respirometry of cultured cells was performed using the XF24e Extracellular Flux Analyzer (Seahorse Bioscience). Oxygen consumption was measured in basal conditions (Seahorse media with 25 mM glucose and 2 mM pyruvate) and after the sequential addition of 1 μM oligomycin (complex V inhibitor), 0.75 μM FCCP (uncoupler), and 1 μM rotenone/1 μM antimycin A (complex I and complex III inhibitors, respectively). All results were averages of five or more biological replicates. Every biological replicate consisted of three technical replicates. For every technical replicate, we plated equal number of cells (25,000 cell/well when MEFs were used, and 50,000 cells/well when human primary fibroblasts were analyzed). The number of cells was also counted after every respirometry assay to correct for cell death. All oxygen consumption (OCR) data were normalized by the number of viable cells or by protein quantity when isolated mitochondria were used.

[3] = system: APP-DKO cells; assay: as above; details: APP-DKO cells expressing C99; DAPT added
Description: as §2
(§4) To analyze the effect of Aβ addition, a mix of Aβ40/Aβ42 at a ratio 10:1 was added to the cultured cells to a final concentration of 6000 pg/ml for 24 h. For Aβ42 oligomer formation, 5 mM of Aβ42 in DMSO was diluted to 100 μM in ice-cold media, vortexed for 30 seconds, and incubated at 4° C. for 24 h. Aβ42 Oligomers were added to the cultured cells to a final concentration of 5 or 10 μM for 24 h.
as §3
as §4, with “6,000” for “6000”, “s,” for “seconds,”, “Aβ42 Oligomers were added to the cultured cells to a final concentration of 5 or 10 μM for 24 h.” left out

| SMILES | incorporation of radiolabeled cholesterol into cholesteryl esters (ACAT1 activity) [1] | mitochondrial respiration (initial oxygen consumption rate, OCR) [2] | mitochondrial respiration (OCR) [3] |
| --- | --- | --- | --- |
| C[C@@H](NC(=O)c1cc(C(=O)N[C@@H](Cc2ccccc2)[C@H](O)CNC2CC2)cc(N(C)S(C)(=O)=O)c1)c1ccccc1 [BI, β-secretase inhibitor IV] | reduced significantly the incorporation of radiolabeled cholesterol into cholesterol esters; also recorded: reduced the incorporation of cholesterol into cholesteryl esters | reversed the defect in mitochondrial respiration; also recorded: rescued the respiration defects |  |
| C[C@H](NC(=O)Cc1cc(F)cc(F)c1)C(=O)N[C@H](C(=O)OC(C)(C)C)c1ccccc1 [DAPT] |  |  | accentuated |
